In patent US20220348565A1, “PHARMACEUTICAL COMPOUNDS” (SENTINEL ONCOLOGY LIMITED, priority 2019, published 2022):
Where a name gives a salt, the structure may show the parent alone. Read-outs that look alike come from different tables or passages of the source.

Tests used:
[1] = Chiral stability (interconversion) of isolated atropisomers on heating, chiral HPLC; format: physicochemical; conditions: for % ee of sample @ 40° C. / % ee sample @ 80° C.: EtOH solution, listed as A-1
Description: Stability studies were carried out on the isolated atropisomers, atropisomers A-1 and A-2. To assess the interconversion of atropisomer A-1 and atropisomer A-2 chiral stability was monitored at 40° C. and 80° C. […] 1. 2×1 mg of pure atropisomer was dissolved in 1 mL of EtOH in a sealed-dram vial. 2. One set of vials was heated at 40° C. and another set at 80° C. 3. […] 4. Analysis was carried out at the following timepoints: 0 h, 24 h, 48 h, 72 h, 96 h and 240 h for the samples kept at 40° C. and 24 h, 96 h and 240 h for the samples kept at 80° C. using Chiral HPLC method 5

U87MG cells [2] = test: Mitotic phenotype study in U87MG cells; format: cell-based, human; conditions: 0.03 μM, listed as A-1
Description: Distinct mitotic phenotypes are induced following inhibition of PLK1 and PLK4 in cells. […] Centriole assembly is controlled by PLK4, with inhibitors inducing a multipolar spindle phenotype due to centrosome defects which results in abnormal cyokinesis (Wong et al., 2015. Science 348(6239); 1155-1160). Cells were plated at 10 000/well in 96-well plates and incubated overnight. The following day atropisomer A-2 stocks in DMSO were diluted in medium then added to cells with a maximum final DMSO concentration on cells of 0.2%. Cells were incubated with the compound for 24 hours then fixed in 3.7% formaldehyde. Cells were permeabilised with 0.1% Triton X-100 then incubated with anti-phospho-histone H3 (Ser10) antibody (Abcam). The cells were washed with PBS then incubated with AlexaFluor 488 labelled goat anti-rabbit IgG (Invitrogen) in the presence of 4 ug/mL Hoechst 33342 (Invitrogen). Cells were washed in PBS then imaged on an Arrayscan VTi HCS instrument using the Target Activation V4 Bioapplication. A user-defined threshold was applied to identify mitotic cells based on the intensity of phospho-histone H3 staining. In a separate study, following the above protocol and using single compound concentrations of 0.03 μM for each of atropisomer A-1 and atropisomer A-2, the frequency of observed mitotic phenotypes in U87MG cells was manually assessed and classified into the following phenotypes: non-congressed chromosomes, multipolar spindles/abnormal cytokinesis, monopolar spindles, normal prometaphase, normal metaphase for each of A-1 and A-2.

[3] = system: panel of 48 cancer-derived cell lines; test: Proliferation assay on diverse cancer cell line panel, CellTiter-Glo, 72 hours; format: cell-based; conditions: 72 hours
Description: Screening against diverse cancer cell lines was performed to identify tumour types displaying sensitivity to atropisomers A-1 and A-2. A panel of 48 cancer-derived cell lines was screened in a high-throughput proliferation assay using dilutions of atropisomers A-1/A-2. Cell lines that were screened included those representing cancer of the pancreas, large intestine/colorectum, lung, brain and nerves, and lymphoma and leukaemia cell lines. Cell lines were treated with serial half-log dilutions of compound and assayed 72 hours later for proliferation using CellTiter-Glo Assay (Promega). IC50 values were calculated by fitting the dose-response data using a nonlinear regression model.

U87MG cells [4] = test: U87MG human glioblastoma cell viability, SRB assay, 72 hours; format: cell-based
Description: The following protocol was used to measure the effects of compounds of the invention on U87MG cell viability.
U87MG cells were grown in their recommended growth media/supplements (ATCC). Cells were seeded at a concentration of 5000 cells per well into 96 well plates overnight at 37° C., 5% CO2. Cells were treated with relevant concentrations of test compound for 72 hours. After 72 hours incubation, viability was established using sulforhodamine B (SRB) colorimetric assay. Percentage viability was calculated against the mean of the DMSO treated control samples, and IC50 values for inhibition of cell growth were calculated using GraphPad Prism software by nonlinear regression (4 parameter logistic equation).

KRAS G12V HeLa cell line = test: HeLa cell viability, oncogenic KRasG12V transgene, Cell Titre Blue; format: cell-based; conditions: KRAS G12V HeLa cells, 72 hours; listed as A-4
Description: (§1) Atropisomers A-1, A-2, A-3 and A-4 were tested on HeLa cells engineered to inducibly express wild-type or oncogenic KRasG12V transgenes using the FLP-in/T-Rex system (Invitrogen). Cells were plated, and then treated with or without Doxycycline to induce transgene expression, and then treated with serially-diluted PBD inhibitors. After 72 hours of incubation, cell viability was assessed using the Cell Titre Blue reagent (Promega) and a BMG Pherastar plate reader. The effect of PBD inhibition on cell viability with either wild-type or oncogenic G12V KRAS was assessed using GraphPad Prism.
(§2) From the results obtained by following the above protocol, the GI50 values against the wild-type and KRAS G12V HeLa cell line of each of the atropisomers were determined as shown in Table 12.

[5] = system: wild-type KRAS HeLa cells; test: HeLa cell viability, wild-type KRAS transgene, Cell Titre Blue; format: cell-based; conditions: 72 hours, listed as A-4, read-out: WT GI50
Description: as §1, §2

[6] = Gravimetric vapour sorption (GVS); format: physicochemical
Description: Sorption isotherms were obtained using a Hiden Isochema moisture sorption analyser (model IGAsorp), controlled by IGAsorp Systems Software V6.50.48. The sample was maintained at a constant temperature (25° C.) by the instrument controls. The humidity was controlled by mixing streams of dry and wet nitrogen, with a total flow of 250 ml·min-1. The instrument was verified for relative humidity content by measuring three calibrated Rotronic salt solutions (10-50-88%). The weight change of the sample was monitored as a function of humidity by a microbalance (accuracy +/−0.005 mg). A defined amount of sample was placed in a tared mesh stainless steel basket under ambient conditions. A full experimental cycle typically consisted of three scans (sorption, desorption and sorption) at a constant temperature (25° C.) and 10% RH intervals over a 0-90% range (60 minutes for each humidity level).

[7] = Gravimetric solubility in water; format: physicochemical
Description: The solubility in water of the salts was measured using a gravimetric solubility protocol.
(§3) 1 ml of water was charged into crystallisation tubes. The solid was weighed into a tared glass vial, added in portions to the solutions and the vial weighed after each addition until a hazy solution was observed. The amount in mg was then calculated to give the solubility in mg/ml.
as §3, with “The solubility in water of the salts was measured using a gravimetric solubility protocol. Thus, 1” for “1”, “mg/mL.” for “mg/ml.”

## CN(C)CCNC(=O)c1ccc(-c2ccc(-c3ccc(Cl)cc3)n2-c2ccccc2C(F)(F)F)cc1 (single isomer, unassigned) [Atropisomer A-1, 4-[5-(4-chlorophenyl)-1-[2-(trifluoromethyl)phenyl]pyrrol-2-yl]-N-[2-(dimethylamino)ethyl]benzamide]
[1]; 0 h
  % ee of sample @ 40° C.: 100 % ee
  % ee sample @ 80° C.: 100 % ee
[1]; 24 h
  % ee of sample @ 40° C.: 100 % ee
  % ee sample @ 80° C.: 100 % ee
[1]; 48 h
  % ee of sample @ 40° C.: 100 % ee
[1]; 72 h
  % ee of sample @ 40° C.: 100 % ee
[1]; 96 h
  % ee of sample @ 40° C.: 100 % ee
  % ee sample @ 80° C.: 100 % ee
[1]; 10 days
  % ee of sample @ 40° C.: 100 % ee
  % ee sample @ 80° C.: 100 % ee
[1]; from stability of isolated atropisomers
  atropisomer classification (LaPlante): Class 3
[1]; heating for 10 days at 40° C. and 80° C.
  interconversion / racemization of atropisomers on heating: no interconversion was observed
U87MG cells [2]
  cells with abnormal cytokinesis: 24%
  cells with non-congressed chromosomes: No evidence
  cells with normal mitotic phenotype: 76%
[3]; A549, Lung
  IC50: 9.19 µM
[3]; A-172, Brain & Nerves
  IC50: 7.07 µM
[3]; AsPC-1, Pancreas
  IC50: > 10 µM
[3]; BxPC-3, Pancreas
  IC50: 6.97 µM
[3]; COLO 205, Large intestine/Colorectum
  IC50: 6.75 µM
[3]; Capan-1, Pancreas
  IC50: > 10 µM
[3]; D283 Med, Brain & Nerves
  IC50: 9.26 µM
[3]; DOHH-2, Blood/Lymphoma
  IC50: 5.64 µM
[3]; Daoy, Brain & Nerves
  IC50: 7 µM
[3]; Daudi, Blood/Lymphoma
  IC50: 7.17 µM
[3]; GRANTA-519, Blood/Lymphoma
  IC50: 7.42 µM
[3]; HBL-1, Blood/Lymphoma
  IC50: 9.94 µM
[3]; HCC44, Lung
  IC50: 8.26 µM
[3]; HOT 116, Large intestine/Colorectum, listed as A-1
  IC50: 7.36 µM
[3]; HT-29, Large intestine/Colorectum
  IC50: 4.53 µM
[3]; JVM-2, Blood/Lymphoma
  IC50: 4.71 µM
[3]; JeKo-1, Blood/Lymphoma
  IC50: 7.94 µM
[3]; KG-1, Blood/Leukaemia
  IC50: > 10 µM
[3]; Kasumi-1, Blood/Leukaemia
  IC50: 5.13 µM
[3]; LN-229, Brain & Nerves
  IC50: 7.37 µM
[3]; LoVo, Large intestine/Colorectum
  IC50: 8.36 µM
[3]; MIA PaCa-2, Pancreas
  IC50: 9.17 µM
[3]; ML-2, Blood/Leukaemia, listed as A-1
  IC50: 4.01 µM
[3]; MV-4-11, Blood/Leukaemia
  IC50: 6.49 µM
[3]; NAMALWA, Blood/Lymphoma
  IC50: 7.05 µM
[3]; NCI-H460, Lung
  IC50: 8.13 µM
[3]; NCI-H1299, Lung
  IC50: 8.25 µM
[3]; NCI-H1373, Lung
  IC50: > 10 µM
[3]; NCI-H1792, Lung
  IC50: 7.73 µM
[3]; NCI-H1975, Lung
  IC50: 5.14 µM
[3]; OCI-LY-19, Blood/Lymphoma
  IC50: 6.67 µM
[3]; PANC-1, Pancreas
  IC50: > 10 µM
[3]; Panc 10.05, Pancreas
  IC50: 9 µM
[3]; RKO, Large intestine/Colorectum
  IC50: 6.17 µM
[3]; Raji, Blood/Lymphoma
  IC50: 3.91 µM
[3]; Ramos, Blood/Lymphoma
  IC50: 3.99 µM
[3]; SK-MES-1, Lung
  IC50: 7.78 µM
[3]; SU-DHL-2, Blood/Lymphoma
  IC50: 7.01 µM
[3]; SU-DHL-6, Blood/Lymphoma
  IC50: 3.98 µM
[3]; SVV620, Large intestine/Colorectum, listed as A-1
  IC50: 8.35 µM
[3]; SW480, Large intestine/Colorectum
  IC50: 7.55 µM
[3]; SW1088, Brain & Nerves
  IC50: 8.49 µM
[3]; T98G, Brain & Nerves
  IC50: 5.26 µM
[3]; Toledo, Blood/Lymphoma
  IC50: > 10 µM
[3]; U118 MG, Brain & Nerves
  IC50: 7.6 µM
[3]; U-2932, Blood/Lymphoma
  IC50: 4.47 µM
[3]; WSU-DLCL2, Blood/Lymphoma
  IC50: 6.74 µM
[3]; Z-138, Blood/Lymphoma
  IC50: 7.04 µM
U87MG cells [4]
  IC50: 4.6 µM

## CN(C)CCNC(=O)c1ccc(-c2ccc(-c3ccc(Cl)cc3)n2-c2ccccc2C(F)(F)F)nc1 (single isomer, unassigned) [Atropisomer A-4, 6-[5-(4-chlorophenyl)-1-[2-(trifluoromethyl)phenyl]pyrrol-2-yl]-N-[2-(dimethylamino)ethyl]pyridine-3-carboxamide]
KRAS G12V HeLa cell line
  GI50: 153 nM
[5]
  GI50: 254 nM
U87MG cells [4]; listed as A-4
  IC50: 3.94 µM

## CN(C)CCNC(=O)c1ccc(-c2ccc(-c3ccc(Cl)cc3)n2-c2ccccc2C(F)(F)F)cc1 [(+)-L-tartaric acid salt, (R)-2,4-[5-(4-chlorophenyl)-1-[2-(trifluoromethyl)-phenyl]pyrrol-2-yl]-N-[2-(dimethylamino)-ethyl]benzamide (+)-L-tartaric acid salt]
[6]; at 90% RH
  surface moisture uptake: < 1%
[7]
  water solubility compared with free base: improved water solubility over the free base

## CN(C)CCNC(=O)c1ccc(-c2ccc(-c3ccc(Cl)cc3)n2-c2ccccc2C(F)(F)F)cc1.O=C(O)C(O)C(O)C(=O)O [Tartrate Pattern B, (R)-4-[5-(4-chlorophenyl)-1-[2-(trifluoromethyl)phenyl]pyrrol-2-yl]-N-[2 (dimethylamino)ethyl]benzamide tartrate]
[6]; 0-90% RH cycling, XRPD post GVS
  solid form stability under GVS: stable solid, only absorbing surface moisture with no change in form
[6]; GVS, 25° C.
  moisture content before the first desorption: ca. 0.3%
[6]; GVS, 25° C., 80-90% RH
  moisture taken up between 80 and 90% RH: ca. 0.8%
